The source of these data is PubChem BioAssay AID179 (DTP/NCI, 2004).

The term EC50 denotes the concentration giving half of the maximal effect. As usually defined, the IC50 is the concentration that gives 50% inhibition. High values mean weaker potency in that assay, low ones greater potency in that assay.

For this assay, the system named is CEM cells HIV-1 protection, formazan growth assay. Kind of assay: NCI AIDS Antiviral Assay. Conditions: for IC50: measured here: growth of uninfected CEM cells. The essentials:
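Human CEM cells, uninfected and HIV-1-infected, received five drug concentrations, and growth was read by soluble formazan assay. Compounds giving at least 50% protection were retested; reproducible 100% protection defined confirmed active.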

Activity calls are given as the source filed them.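 How the source made its calls: active means compounds giving half or more protection of infected cells from virus-caused growth loss, again on retest; inactive means the rest.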

For the compound `C=CCC(C=C=CCN(C)C)CO` (stereo unspecified), the EC50 was more than 1200 µM and the IC50 amounted to 631 µM.

On to `COc1cc(/C=C(\C)c2ccc3c(c2)OCO3)cc(OC)c1OC`, for which the EC50 was more than 41.7 µM and the IC50 was more than 41.7 µM.

`CC1=CC2(C)C=C(C)C3(OC(c4ccccc4)=C(C#N)C3=N2)C1=O` (stereo unspecified): the EC50 is more than 70.8 µM and the IC50 worked out at 34.7 µM.

Take `NNC(=S)SSC(=S)NN`: the EC50 was more than 200 µM and the IC50 turned out to be 21.9 µM.

`Cc1cc2nc(N)n[n+]([O-])c2cc1C`: the EC50 was more than 200 µM and the IC50 was more than 200 µM.

On to `COC(=O)CC1N=C(NC#N)N(CCc2c[nH]c3ccccc23)C1=O` (stereo unspecified), for which the result was inactive.

In the case of `FC(F)(F)c1ccc2c(-c3cc[nH]c3)ccnc2c1`, the EC50 was more than 200 µM and the IC50 was 15.5 µM.

Turning to `CCOC(=O)c1nc2ccccc2nc1Oc1cc(OC)c(OC)c(OC)c1`, the EC50 is more than 100 µM and the IC50 was more than 100 µM.

On to `CCOC(=O)/C(=C\c1cccc(C#N)c1)C(C)=O`, for which the EC50 was more than 389 µM and the IC50 came out at 28.2 µM.

For `COc1cc2c(oc(=O)c3c4oc([Si](C)(C)C)cc4cc(OC)c23)c2cccc(O)c12`, the EC50 was more than 1.74 µM and the IC50 was more than 1.74 µM.

As for `CC1(C)N=C(C(N)=O)c2ncn(-c3ccccc3)c2N1`, the EC50 was more than 200 µM and the IC50 was more than 200 µM.

As for `[N-]=[N+]=Nc1nnc(CCCCc2nnc(N=[N+]=[N-])o2)o1`, the EC50 was more than 468 µM and the IC50 worked out at 138 µM.

Turning to `CCN1c2ccccc2-c2c3c1cc(C)cc3c1ccccc1[n+]2CC`, the outcome was inactive.

As to `CC1=C\[C@@H](O)CC(=O)Cc2nc(co2)C(=O)N2CCC=C2C(=O)O[C@H](C(C)C)[C@H](C)/C=C/C(=O)NC\C=C\1`, the EC50 is more than 9.77 µM and the IC50 is more than 9.77 µM.

For `O=c1n(-c2ccccc2)c(=O)n2n1C1Cc3ccccc3C12` (stereo unspecified), the result was inactive.

With `CSc1nn(C)cc2ncnc1-2`, the EC50 was more than 200 µM and the IC50 is more than 200 µM.

In the case of `O=c1/c(=C/c2ccccc2)sc2nc(-c3ccccc3)nn12`, the EC50 is more than 200 µM and the IC50 is more than 200 µM.

Take `O=C(O)c1cc(=O)c2[nH]c3ccccc3c2s1`: the result was inactive.

Regarding `COc1ccc(/C=N/NC(=O)c2ccc(O)c(CN(C)C)c2)cc1`, the EC50 was more than 200 µM and the IC50 was more than 200 µM.

Turning to `COc1cc2nc(CCc3nc4cc(OC)c(OC)cc4[nH]3)[nH]c2cc1OC`, the EC50 is more than 17 µM and the IC50 stood at 12.3 µM.

On to `CC1=NC(c2ccccc2)(C2(c3ccccc3)C(c3ccccc3)=C2c2ccccc2)C(=O)O1` (stereo unspecified), for which the EC50 is more than 6.17 µM and the IC50 is more than 6.17 µM.

For `CCCCOC(=O)C1CC2OC2CC1C(=O)OCCCCOC(=O)C1CC2OC2CC1C(=O)OCCCC` (stereo unspecified), the EC50 was more than 200 µM and the IC50 worked out at 21.9 µM.

`O=C(O)CSC(=S)CCCCCCCCCCC(=S)SCC(=O)O`: the EC50 was more than 120 µM and the IC50 was more than 120 µM.

As for `O=C([CH-]C(=O)c1ccccc1)c1ccccc1.[CH3-].[CH3-].[CH3-].[Sn+4]`, the EC50 was more than 35.5 µM and the IC50 was more than 35.5 µM.

As to `Cc1c(N=O)c(=O)n(-c2ccccc2)n1C`, the result was inactive.

Take `COc1ccc(CCN2C(=O)CCC3=C2CCCC3=O)cc1OC`: the EC50 was more than 200 µM and the IC50 was more than 200 µM.

On to `c1cc(-c2cn[nH]c2)cc(-c2cn[nH]c2)c1`, for which the outcome was inactive.

`C/C(=N\N=C(N)N)C(CN(C)C)C(c1ccccc1)c1c(O)c2ccccc2oc1=O` (stereo unspecified): the EC50 was more than 40.7 µM and the IC50 was 17.4 µM.

As to `CCCCCCCC/C=C\CCCCCCC(F)C(=O)O` (stereo unspecified), the EC50 is 33.1 µM and the IC50 was more than 200 µM.

Take `COc1c2c(cc3ccc(=O)oc13)CCO2`: the EC50 is more than 204 µM and the IC50 was more than 204 µM.

In the case of `S=C1SC(=Nc2ccccc2)C(=Nc2ccccc2)N1c1ccc2ccccc2c1`, the EC50 is more than 200 µM and the IC50 is 14.1 µM.

`O=c1nc(N2CCCC2)oc2cc3ccccc3cc12`: the EC50 was more than 200 µM and the IC50 turned out to be 89.1 µM.

Take `COC(=O)C1=CCS(=O)(=O)C1`: the EC50 is more than 1410 µM and the IC50 was determined as 178 µM.

In the case of `CC(C)(NO)/C(=N\O)c1ccco1`, the EC50 is more than 200 µM and the IC50 is more than 200 µM.

In the case of `CSc1nc(NC(=O)c2ccc([N+](=O)[O-])cc2)c(C(=O)NC(C)C)s1`, the EC50 is more than 200 µM and the IC50 was 138 µM.

For the compound `O=c1c2ccccc2ncn1COCc1ccccc1`, the EC50 was more than 200 µM and the IC50 is more than 200 µM.

As for `O=C(Nc1ccccc1)Nc1ccc([N+](=O)[O-])cn1`, the EC50 was more than 200 µM and the IC50 was more than 200 µM.

Take `N=C(N)c1ncn(C2OC(CO)C(O)C2O)n1` (stereo unspecified): the outcome was inactive.

In the case of `CC1(C)C(=O)N(O)C(C)(C)N1O`, the EC50 is more than 200 µM and the IC50 is more than 200 µM.

Consider `N#CN=C(N)N`, for which the outcome was inactive.

For `CCOC(=O)C(=C/C=C/N[C@@H](Cc1c[nH]c2ccccc12)C(N)=O)C(=O)OCC`, the EC50 was more than 18.2 µM and the IC50 is more than 18.2 µM.

With `COc1cc(OC)c(OC)cc1/C=C\c1ccnc2ccccc12`, the EC50 is more than 30.9 µM and the IC50 is 1.48 µM.

Regarding `O=c1cc2cc(O)[nH]c(=O)c2c(O)[nH]1`, the result was inactive.

As for `CCOC(=O)C(CC[C@H]1c2[nH]c3ccccc3c2C[C@@H](C#N)N1C(=O)C(F)(F)F)C(=O)OCC`, the EC50 was more than 20.9 µM and the IC50 is more than 20.9 µM.

`COc1cccc(C2SC(N)=Nc3c2c(C)nn3C(=O)c2ccccc2O)c1` (stereo unspecified): the EC50 was more than 2 µM and the IC50 was determined as 0.17 µM.

With `CN(CCC(N)CC(=O)NC1C=CC(n2ccc(N)nc2=O)OC1C(=O)O)C(=N)N` (stereo unspecified), the EC50 is more than 200 µM, the result was inactive and the IC50 was found to be 31.6 µM.

As for `CC(=NNC(=S)Nc1ccccc1)c1cccc(C(C)=NNC(=S)Nc2ccccc2)n1`, the EC50 is more than 200 µM and the IC50 came out at 9.33 µM.

As to `CCc1cccc(C(C)CC)c1NC(=O)C(=O)C(CC(=O)Nc1ccc(Cl)c(Cl)c1)C(=O)OC` (stereo unspecified), the EC50 was more than 186 µM and the IC50 is more than 186 µM.

For `Nc1nn2c(=O)c3ccccc3nc2s1`, the EC50 is more than 200 µM and the IC50 is 89.1 µM.

Consider `CCOC(=O)c1cn2c(n1)sc1cccc(C)c12`, for which the EC50 is more than 200 µM and the IC50 is more than 200 µM.

For the compound `C=C1C[C@@H]2O[C@H]3[C@H]4[C@@H](C[C@@H](C)[C@@H](OC(C)=O)[C@H]42)[C@@H](C)CO[C@@]3(C)[C@H](OC(=O)CCCCCCC)CC1=O`, the EC50 was more than 200 µM and the IC50 came out at 10 µM.

In the case of `CC1CNC(c2ccc(NC(=O)Nc3cc(C(=O)Nc4ccc(C5=NC(C)CN5)cc4)ccc3C(=O)Nc3ccc(C4=NC(C)CN4)cc3)cc2)=N1` (stereo unspecified), the EC50 is more than 100 µM and the IC50 was more than 100 µM.

For `CC(=O)C1CC[C@@H]2[C@H](CC[C@]3(C)[C@@H](O)CC[C@@H]23)[C@H]1C(=O)O` (stereo partly specified), the EC50 was more than 200 µM and the IC50 is more than 200 µM.

For `O=[N+]([O-])c1ccc2c(c1)/C(=N/N=C1c3ccccc3Cc3ccccc31)c1cc([N+](=O)[O-])cc([N+](=O)[O-])c1-2`, the result was inactive.

As for `C1CCC(OC2CSC2)OC1` (stereo unspecified), the EC50 was more than 389 µM and the IC50 was more than 389 µM.

As to `Cc1cc(O)c(/C=N/C(=O)NN)c(=O)o1`, the EC50 is more than 200 µM and the IC50 was more than 200 µM.

Take `CCOC(=O)/C(=C\c1cccc(C(F)(F)F)c1)[Se]c1ccccc1`: the EC50 is more than 18.2 µM and the IC50 is more than 18.2 µM.

Turning to `COc1ccc2oc3c(C)cc4c(OC)nnc(OC)c4c3c2c1`, the EC50 is more than 200 µM and the IC50 came to 12.6 µM.

In the case of `O=c1c2ccccc2nc(-c2ccccc2)n1NCC1(O)OCC(O)C(O)C1O` (stereo unspecified), the result was inactive.

In the case of `CCOC(=O)C(C)c1nc2ccc(C(F)(F)F)cc2[nH]c1=O` (stereo unspecified), the EC50 is more than 200 µM and the IC50 is 110 µM.

`COc1ccc(-c2cc(=O)c3c(O)c(OC)c(OC)c(OC)c3o2)cc1`: the EC50 was more than 200 µM and the IC50 is 55 µM.

Take `O=C1c2ccccc2-c2nnc(-c3ccc(Cl)cc3)cc21`: the EC50 was more than 100 µM and the IC50 was more than 100 µM.

In the case of `CC(C)N(C(=O)C12C3C4C5C3C1(C(=O)N(C(C)C)C(C)C)C5C42)C(C)C` (stereo unspecified), the EC50 is more than 100 µM and the IC50 was more than 100 µM.

Consider `CCOC(=O)c1ccc(-c2cc(C)no2)[nH]1`, for which the EC50 was more than 200 µM and the IC50 is 36.3 µM.

As to `CCCCCCCCCCCCCCCCOCC(Cl)CP(=O)(O)OP(=O)(O)OCC1OC(n2cnc3c(N)ncnc32)C(O)C1O` (stereo unspecified), the EC50 is more than 100 µM and the IC50 was more than 100 µM.

Turning to `O=[N+]([O-])c1cnc(/C=[N+](\[O-])CCO)n1CCO`, the outcome was inactive.

For the compound `ON1CCc2c([nH]c3ccccc23)C1c1ccccc1Br` (stereo unspecified), the outcome was inactive.

`CCOP(=O)(OCC)C(Nc1ccc(Br)cc1)c1cccc([N+](=O)[O-])c1` (stereo unspecified): the result was inactive.

As to `Nc1nccc2c([N+](=O)[O-])cccc12`, the outcome was inactive.

As for `COC1=C(C)C(=O)c2nc(Cl)ccc2C1=O`, the outcome was inactive.

Take `CC(C)c1ccc2c(c1)CCC1C(C)(C)[C@@H](O)CC[C@]21C` (stereo partly specified): the EC50 is more than 66.1 µM and the IC50 stood at 37.2 µM.

In the case of `C#CCN(N=O)C(=O)NCCCCC(NC(C)=O)C(=O)NCc1ccccc1` (stereo unspecified), the EC50 is more than 646 µM and the IC50 worked out at 56.2 µM.

Take `O=c1[nH]cnc2c1ccn2C1OC(CO)C(O)C1O` (stereo unspecified): the EC50 was more than 20 µM and the IC50 came to 2.04 µM.

On to `CCOC(=O)C1(C(=O)OCC)OC(=O)NC2=C1CCCC2`, for which the EC50 is more than 832 µM and the IC50 was 145 µM.

For the compound `O=C1CN(C(=O)c2ccccc2)Cc2[nH]c3ccccc3c21`, the outcome was inactive.

`COc1ccc(NS(=O)c2ccccc2OC)cc1` (stereo unspecified): the EC50 was more than 200 µM and the IC50 stood at 15.1 µM.
